Data taken from patent publication US20080096971A1, “Treatment of Inflammatory Disorders and Pain” (priority 2004, published 2008).
Entries after “also recorded” stand apart in the source; their conditions may differ.

Key:
[1] = system: Serum TNFα and IL-10 levels; assay: LPS Mouse Assay; format: in vivo, Balb C ByJ mice; details: LPS 1 mg/kg i.p., serum 2 hours after challenge, 0.3 and 1 mg/kg p.o. for (S)-clenbuterol
Method: 7 week old Balb C ByJ mice (24-28 g) were administered, either by i.p. (5 ml/kg) or oral (10 ml/kg) administration, with vehicle or test article. 30 minutes later these animals were challenged with an intraperitoneal injection of 1 mg/kg LPS. 2 hours after LPS challenge blood samples were collected under light isoflurane anaesthesia into normal tubes by retro-orbital puncture. Samples were allowed to clot at room temperature and then spun at 6000 g for 3 min at 4° C. Serum was stored at −20° C. until use. Serum TNFα and IL-10 levels were analysed in duplicate by ELISA technique.

[2] = system: Guinea-pig trachea ring preparations (beta2 agonism); assay: Beta2 Agonism Functional Assay (carbachol-contracted trachea rings); format: cell-based; details: for beta2 agonist activity (in words): guinea-pig trachea, formoterol positive control
Method: Beta2 Agonism Functional Assay
Guinea-pig trachea ring preparations were suspended in Kreb's solution containing indomethacin. After 15 minutes stabilisation, the preparations were repeated contracted using carbachol and simultaneously treated with increasing cumulative doses test compounds (0.1 nM to 0.1 μM). Beta2 agonism for each test compound was determined by its dose-dependant inhibition of carbachol-stimulated tracheal muscle twitch.

[3] = system: male DBA1 mice (collagen II induced arthritis); assay: Collagen II-Induced Arthritis Assay; format: in vivo; details: doses of 0.3, 1 and 3 mg/kg, from day 21
Method: Collagen II-Induced Arthritis Assay
6 to 8 week old male DBA1 mice were immunised with 0.1 ml intradermal (tail) injection of bovine type II collagen emulsified in Freund's complete adjuvant (day 0). At day 21 a booster collagen (intraperitoneal) inoculation was given, in PBS. Simultaneously, administration of test compound was given by the predetermined route of administration and delivery frequency. In addition, day 21 commenced observation of clinical signs, body weights and arthritis reaction scores. Arthritis score was assessed by the summation of all four paws scored for signs of arthritis development.

[4] = system: male Wistar rats (carrageenan-injected right hind paw); assay: Carrageenan Paw Assay; format: in vivo; details: doses of 0.3, 1 and 3 mg/kg oral; 1-5 hours after carrageenan
Method: Fasted (18 hour) male Wistar rats (105-130 g) were weighed and a basal mercury plethysmometer reading was taken of the right hind paw by submerging the paw in the mercury up to the tibiotarsal joint. Subsequently, vehicles, reference items and test articles were administered by oral gavage (10 ml/kg). Half an hour after treatment 0.1 ml of 2% carrageenan in 0.9% saline was injected into the subplanatar area of the right hind paw. The right paw was measured again with the plethysmometer at 1, 2, 3, 4 and 5 hours after carrageenan administration.

[5] = system: Male Wistar rats (Freund's adjuvant); assay: Rat Adjuvant Assay; format: in vivo; details: oral once a day from day 11; (S)-clenbuterol at 0.3, 1 and 3 mg/kg/day
Method: Male Wistar rats (180 to 200 g) were inoculated by subplantar injection of Freund's adjuvant (suspension of Mycobacterium butyricum in mineral oil) into the right paw at day 0. Sham inoculations were injected in the same way with 0.9% saline in matched Male Wistar rats. On day 2 animals were weighed. On days 3, 4, 7, 9 and 11 animals were weighed and both their right and left hind paws were measure by plethsymometry by submerging the paw up to the tibiotarsal joint. On day 11, rats with left hind paw volumes increased by 20% were selected for continuance in the study. On the same day continuance rats were administered test article orally (10 ml/kg in distilled water) and from then on once a day until the completion of the study. Left and right hind paw volumes were measured on days 11, 14, 15, 16, 18 and 21.

| SMILES | immunomodulatory activity (serum TNFα and IL-10 after LPS) [1] | beta2 agonist activity (in words) [2] | beta2 agonist activity (in words) ([2]; listed as (R)-clenbuterol) | anti-inflammatory effect (arthritis score) [3] | immunomodulatory activity (serum TNFα and IL-10 after LPS) ([1]; listed as (S)-clenbuterol) | anti-inflammatory activity (paw volume) [4] | anti-inflammatory effect (hind paw volume) [5] | inhibition of carbachol-stimulated tracheal muscle twitch ([2]; from −10 to −7 log M, cumulative doses) |
| --- | --- | --- | --- | --- | --- | --- | --- | --- |
| CC(C)(C)NC[C@H](O)c1cc(Cl)c(N)c(Cl)c1 [(R)-Clenbuterol] | significant activity | little such beta2 agonist activity | distinct beta2 agonism |  |  |  |  |  |
| CC(C)(C)NC[C@@H](O)c1cc(Cl)c(N)c(Cl)c1 [(S)-Clenbuterol, (S)-(+)-clenbuterol] | significant activity | a little lower than that caused by formoterol |  | clear but inverse dose-related anti-inflammatory effect | profound immunomodulatory profile; also recorded: less than (R)-clenbuterol | strong and dose-dependent anti-inflammatory activity | clear but non-dose-related anti-inflammatory effect | up to 75% |
